This passage reports viability, T/C and IC50 results from PubChem BioAssay AID1845196 (Molecular Pharmacology Branch, DTP, NCI, 2023).

This assay deals with 292921-168-R tumor spheroid viability. Briefly: Anticancer human tumor 292921-168-R patient-derived pancreatic carcinoma cell line growth inhibition. Particulars: spheroids with HUVEC and MSC; for viability, T/C: stronger effect = lower value; for IC50: compound alone; for pIC50: curve of first compound. An excerpt: Multicellular complex tumor spheroid response to DNA repair inhibitors in combination with DNA-damaging drugs
This study explores the anticancer activities of DNA-damaging drugs and inhibitors of DNA damage repair, both as single agents and in combinations. Complex tumor spheroids comprised of malignant cells, endothelial cells and mesenchymal stem cells served as an in vitro model for human solid tumors. This model system incorporates physiologically relevant features and patient-derived or established malignant cell lines with clinically relevant genetic alterations from many tumor types. Twenty-six patient-derived or established malignant cell lines were evaluated representing sarcoma, melanoma, small cell lung cancer (SCLC), non-small cell lung cancer (NSCLC), as well as bladder, ovarian and pancreatic cancers. The concentration ranges selected for each drug and investigational agent were based upon clinically achievable concentrations if the clinical Cmax of the agent was known.
Compounds. The drugs and compounds olaparib (NSC753686), talazoparib (NSC767125), berzosertib (NSC777718), elimusertib (NSC800525), nedisertib (NSC802822), VX-984 (NSC792969), AZD-1390 (NSC803789), temozolomide (NSC362856), topotecan (NSC609699), trabectedin (NSC813783), staurosporine (NSC755774), and gemcitabine (NSC613327) were obtained from the National Cancer Institute (NCI) Developmental Therapeutics Program Chemical Repository. The FDA-approved anticancer drug set is available from the Developmental Therapeutics Program at https://dtp.cancer.gov/organization/dscb/obtaining/available_plates.htm. […] The stock solutions were prepared in dimethyl sulfoxide (DMSO, Sigma-Aldrich, St. Louis, MO, cat. D2650) at 400-fold the tested concentration and stored at -70 degrees C. Prior to their use, the stock solutions were diluted in fresh medium and the final DMSO concentration in the assay was 0.25% (v/v). All drugs and investigational agents were tested over a range starting from a high concentration at or near the clinical Cmax and decreasing in half-log increments. If the clinical Cmax for an agent had not been determined, the highest concentration tested was 10 microM.
Cell Lines. The patient-derived cancer cell (PDC) lines: 156681-154-R-J1-PDC, 283228-195-R-J1-PDC, 287954-098-R-J1-PDC, 292921-168-R-J2-PDC, 349418-098-R-PDC, 425362-245-T-J1-PDC, 556581-035-R-J1-PDC, and BL0293-F563-PDC were received from the NCI Patient-Derived Models Repository (PDMR, https://pdmr.cancer.gov). The established cell lines HS-SY-2 (RRID:CVCL_8719), MPNST, and SYO-1 (RRID:CVCL_7146) were obtained from the Sloan Kettering Institute. The alveolar soft parts sarcoma cell line ASPS-1 (RRID:CVCL_S738) was established at the NCI and grown from internal seed stocks. The following established cell lines were purchased from the American Type Culture Collection (ATCC, Manassas, VA): G-401 (ATCC, cat. CRL-1441, RRID:CVCL_0270), SW982 (ATCC, cat. HTB-93, RRID:CVCL_1734), VA-ES-BJ (ATCC, cat. CRL-2138, RRID:CVCL_1785), NCI-H719 (ATCC, cat. CRL-5837, RRID:CVCL_1582), NCI-H196 (ATCC, cat. CRL-5823, RRID:CVCL_1509), NCI-H841 (ATCC, cat. CRL-5845, RRID:CVCL_1595), NCI-H1618 (ATCC, cat. CRL-5879, RRID:CVCL_1480), NCI-H1876 (ATCC, cat. CRL-5902, RRID:CVCL_1503), DMS 114 (ATCC, cat. CRL-2066; RRID:CVCL_1174), NCI-H211 (ATCC, cat. CRL-5824; RRID:CVCL_1529), and SW 1271 (ATCC, cat. CRL-2177, RRID:CVCL_1716). The small cell lung cancer cell line COR-L88 was purchased from Sigma-Aldrich (cat. 92031917-1VL, RRID:CVCL_1141). The non-small cell lung cancer cell lines NCI-H226 (RRID:CVCL_1544) and NCI-H322M (RRID:CVCL_1557) were established at the NCI and grown from internal seed stocks. Pooled donor human umbilical vein endothelial cells (HUVEC, Lonza, cat. CC-2519) and human mesenchymal stem cells (hMSC, Lonza, cat. PT-2501) were purchased from Lonza (Walkersville, MD).
Cell Culture. All cells were maintained in an incubator at 37 degrees C and 5% CO2 with 95% humidity. […]

pIC50: −log10 of the molar value.
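Further: spheroids exposed to compounds for 7 days.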

What is called viability, T/C is the ratio of treated to control. In general, IC50 refers to the midpoint of a concentration-inhibition curve. In the case of `CC[C@@]1(O)C(=O)OCc2c1cc1n(c2=O)Cc2cc3c(CN(C)C)c(O)ccc3nc2-1`, the viability, T/C by setting is: (compound 0.003 µM) 94.9% [middle of 10 runs]; (compound 0.00949 µM) 77.4% [middle of 10 runs]; (compound 0.03 µM) 36.8% [middle of 10 runs]; (compound 0.0949 µM) 12.2% [middle of 10 runs]; (compound 0.3 µM) 4.45% [middle of 10 runs]. For the same molecule, the IC50 (run of 10/17/2019) is 19.4 nM [middle of 5 runs] and the IC50 (run of 10/25/2019) was 22.6 nM [middle of 4 runs].
Broadly, the pIC50 is the negative decadic logarithm of the IC50, by convention in mol/L. Regarding `O=C(c1cc(Cc2n[nH]c(=O)c3ccccc23)ccc1F)N1CCN(C(=O)C2CC2)CC1` + COc1cc2c(cc1O)CCNC21CSC2c3c(OC(C)=O)c(C)c4c(c3C(COC1=O)N1C(O)C3Cc5cc(C)c(OC)c(O)c5C(C21)N3C)OCO4, the pIC50 runs as follows: (second compound 30 pM) 5.08; (second compound 94.9 pM) 5.15; (second compound 0.0003 µM) above 7.02; (second compound 0.000949 µM) above 7.02; (second compound 0.003 µM) above 7.02. Besides, the viability, T/C runs as follows: (second compound 30 pM, first compound 0.0949 µM) 99.4%; (second compound 30 pM, first compound 0.3 µM) 103%; (second compound 30 pM, first compound 0.949 µM) 96.6%; (second compound 30 pM, first compound 3 µM) 91.9%; (second compound 30 pM, first compound 9.49 µM) 44.2%; (second compound 30 pM, first compound 30 µM) 21.8%. For the same molecule, the viability, T/C (second compound 94.9 pM, first compound 0.0949 µM) was 94.8%; the viability, T/C (second compound 94.9 pM, first compound 0.3 µM) was 94%; the viability, T/C (second compound 94.9 pM, first compound 0.949 µM) is 88%; the viability, T/C (second compound 94.9 pM, first compound 3 µM) was 82.2%; the viability, T/C (second compound 94.9 pM, first compound 9.49 µM) was 38.9%; the viability, T/C (second compound 94.9 pM, first compound 30 µM) was 22.4%. In addition, the viability, T/C reads like this: (second compound 0.0003 µM, first compound 0.0949 µM) 48%; (second compound 0.0003 µM, first compound 0.3 µM) 41.3%; (second compound 0.0003 µM, first compound 0.949 µM) 38.6%; (second compound 0.0003 µM, first compound 3 µM) 34.3%; (second compound 0.0003 µM, first compound 9.49 µM) 10.7%; (second compound 0.0003 µM, first compound 30 µM) 13.2%. Besides, the viability, T/C was 3.75% (second compound 0.000949 µM, first compound 0.0949 µM); 4.31% (second compound 0.000949 µM, first compound 0.3 µM); 3.14% (second compound 0.000949 µM, first compound 0.949 µM); 3.26% (second compound 0.000949 µM, first compound 3 µM); 1.19% (second compound 0.000949 µM, first compound 9.49 µM); 0.39% (second compound 0.000949 µM, first compound 30 µM). Moreover, the viability, T/C by setting is: (second compound 0.003 µM, first compound 0.0949 µM) 0.15%; (second compound 0.003 µM, first compound 0.3 µM) 0.13%; (second compound 0.003 µM, first compound 0.949 µM) 0.13%; (second compound 0.003 µM, first compound 3 µM) 0.23%; (second compound 0.003 µM, first compound 9.49 µM) 0.41%; (second compound 0.003 µM, first compound 30 µM) 1.31%.
